Data: ChEMBL document CHEMBL1212847, “Synthesis and pharmacology of 1-methoxy analogs of CP-47,497” (Bioorg Med Chem, 2010)

Assays:
Cannabinoid receptor 1 = Cannabinoid receptor 1 (Rattus norvegicus, UniProt P20272); experiment: Displacement of [3H]CP-55940 from CB1 receptor in Sprague-Dawley rat brain cortex membranes; type: cell membranes, Membrane
Cannabinoid receptor 2 = Cannabinoid receptor 2 (Homo sapiens, UniProt P34972); experiment: Displacement of [3H]CP-55940 from human CB2 receptor expressed in CHO cells after 1 hr by liquid scintillation spectrometry analysis; type: cell-based
Sequence of Cannabinoid receptor 2 (P34972 whole entry): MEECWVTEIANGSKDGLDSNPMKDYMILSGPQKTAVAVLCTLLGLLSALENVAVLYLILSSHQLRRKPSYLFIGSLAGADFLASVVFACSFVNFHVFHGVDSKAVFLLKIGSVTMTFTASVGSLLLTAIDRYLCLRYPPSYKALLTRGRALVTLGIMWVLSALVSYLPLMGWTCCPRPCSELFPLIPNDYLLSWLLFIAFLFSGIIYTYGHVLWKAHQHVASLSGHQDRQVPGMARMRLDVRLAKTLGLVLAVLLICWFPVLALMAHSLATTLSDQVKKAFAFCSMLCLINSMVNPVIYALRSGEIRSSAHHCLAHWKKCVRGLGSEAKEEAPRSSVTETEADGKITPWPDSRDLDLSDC

Sequence of Cannabinoid receptor 1 (P20272 whole entry): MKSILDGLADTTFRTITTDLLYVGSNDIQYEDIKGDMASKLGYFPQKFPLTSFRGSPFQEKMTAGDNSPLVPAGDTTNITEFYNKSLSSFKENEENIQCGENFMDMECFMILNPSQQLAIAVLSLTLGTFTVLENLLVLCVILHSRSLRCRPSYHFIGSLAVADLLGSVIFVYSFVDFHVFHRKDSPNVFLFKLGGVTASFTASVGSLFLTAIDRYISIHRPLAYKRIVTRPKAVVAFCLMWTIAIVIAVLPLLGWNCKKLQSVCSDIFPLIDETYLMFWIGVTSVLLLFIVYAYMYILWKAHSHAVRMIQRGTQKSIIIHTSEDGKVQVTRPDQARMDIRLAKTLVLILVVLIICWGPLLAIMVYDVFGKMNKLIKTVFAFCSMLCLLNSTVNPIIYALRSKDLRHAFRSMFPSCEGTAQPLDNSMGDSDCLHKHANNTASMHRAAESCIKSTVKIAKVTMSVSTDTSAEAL

| Compound | Ki (Cannabinoid receptor 1) [µM] | Ki (Cannabinoid receptor 2) [µM] |
| --- | --- | --- |
| CCCCCC(C)(C)c1ccc([C@H]2CCC[C@@H](O)C2)c(OC)c1 (relative stereo) | 4.41 | 0.553 |
| CCCCCCC(C)(C)c1ccc([C@H]2CCC[C@@H](O)C2)c(OC)c1 (relative stereo) | > 10 | 0.808 |
| CCCCCC(C)(C)c1ccc([C@H]2CCC[C@H](O)C2)c(OC)c1 (relative stereo) | 4.12 | 0.693 |
| CCCCCCC(C)(C)c1ccc([C@H]2CCC[C@@H](O)C2)c(O)c1 | 0.00954 | – |
| CCCCCCC(C)(C)c1ccc([C@H]2CCC[C@H](O)C2)cc1 (relative stereo) | 0.645 | 0.178 |
